Experimental data: publication PMC4669708 (Cell Death & Disease, 2015)

How the values were obtained:
Experiment in all cases: c-ponatinib pulldown LC-MS/MS
Assay type in all cases: binding
CCT2 = biological target: T1, CCT2 (Homo sapiens, UniProt P78371)
T1 sequence (P78371 1-535): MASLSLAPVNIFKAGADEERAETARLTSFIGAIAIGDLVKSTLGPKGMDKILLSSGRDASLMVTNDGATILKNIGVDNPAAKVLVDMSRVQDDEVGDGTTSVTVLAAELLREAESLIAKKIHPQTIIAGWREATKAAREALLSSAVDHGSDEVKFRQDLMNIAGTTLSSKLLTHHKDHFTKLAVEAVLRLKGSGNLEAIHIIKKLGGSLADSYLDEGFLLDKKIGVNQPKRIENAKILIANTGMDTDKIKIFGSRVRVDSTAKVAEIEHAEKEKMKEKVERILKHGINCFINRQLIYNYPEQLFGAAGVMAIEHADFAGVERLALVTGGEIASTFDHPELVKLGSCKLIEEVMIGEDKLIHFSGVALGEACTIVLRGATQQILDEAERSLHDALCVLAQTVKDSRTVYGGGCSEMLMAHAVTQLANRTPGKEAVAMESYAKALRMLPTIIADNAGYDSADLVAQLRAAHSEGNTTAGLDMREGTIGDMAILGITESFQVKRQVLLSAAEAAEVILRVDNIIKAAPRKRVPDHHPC
How it was run: (§1)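 c-Ponatinib (25 nmol) immobilized on NHS-Sepharose was incubated with 10 mg whole cell lysate per replicate, in duplicate. Eluates were reduced, alkylated, trypsin-digested and analysed by gel-free 1D LC-MS/MS. Specificity was scored from Mascot, Phenyx and spectral counts, with competition by free compound.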

RIPK1 = biological target: T2, RIPK1 (Homo sapiens, UniProt Q13546)
T2 sequence (Q13546 1-671): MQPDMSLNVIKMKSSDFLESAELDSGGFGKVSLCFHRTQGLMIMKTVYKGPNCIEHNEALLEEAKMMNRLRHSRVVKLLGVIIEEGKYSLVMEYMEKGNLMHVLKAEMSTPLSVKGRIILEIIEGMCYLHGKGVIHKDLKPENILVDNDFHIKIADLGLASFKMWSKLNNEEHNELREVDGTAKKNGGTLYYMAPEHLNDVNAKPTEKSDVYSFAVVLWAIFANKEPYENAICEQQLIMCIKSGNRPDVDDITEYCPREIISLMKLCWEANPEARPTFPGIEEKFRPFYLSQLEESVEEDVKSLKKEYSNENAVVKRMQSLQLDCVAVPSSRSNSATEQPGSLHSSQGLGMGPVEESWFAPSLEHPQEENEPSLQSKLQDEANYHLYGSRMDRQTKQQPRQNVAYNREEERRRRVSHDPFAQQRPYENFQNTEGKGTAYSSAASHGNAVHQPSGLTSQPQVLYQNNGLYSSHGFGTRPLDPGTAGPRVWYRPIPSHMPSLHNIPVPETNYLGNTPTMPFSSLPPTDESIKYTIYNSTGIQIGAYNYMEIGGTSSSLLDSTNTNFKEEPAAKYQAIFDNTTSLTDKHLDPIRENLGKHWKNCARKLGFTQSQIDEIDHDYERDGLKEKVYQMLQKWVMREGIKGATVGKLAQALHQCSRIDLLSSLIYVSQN
How it was run: as §1

RIPK3 = RIPK3 (Homo sapiens, UniProt Q9Y572)
How it was run: as §1

RIPK3, sequence (Q9Y572 whole entry): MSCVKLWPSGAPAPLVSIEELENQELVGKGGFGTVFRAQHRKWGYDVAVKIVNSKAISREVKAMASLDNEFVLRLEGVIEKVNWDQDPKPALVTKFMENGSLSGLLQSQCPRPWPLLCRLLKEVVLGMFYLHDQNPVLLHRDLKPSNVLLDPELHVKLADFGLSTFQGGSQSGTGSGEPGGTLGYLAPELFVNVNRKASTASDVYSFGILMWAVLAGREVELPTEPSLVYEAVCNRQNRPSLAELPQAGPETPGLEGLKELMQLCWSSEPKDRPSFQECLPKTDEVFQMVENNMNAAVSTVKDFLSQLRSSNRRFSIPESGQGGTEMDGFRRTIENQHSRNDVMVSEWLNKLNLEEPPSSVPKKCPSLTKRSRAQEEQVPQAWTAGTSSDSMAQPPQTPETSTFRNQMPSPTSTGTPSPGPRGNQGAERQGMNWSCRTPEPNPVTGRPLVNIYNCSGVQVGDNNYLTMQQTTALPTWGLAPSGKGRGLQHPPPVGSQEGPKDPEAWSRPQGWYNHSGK

- Av. SC comp. (CCT2; + free ponatinib): 0
- Total SC comp. (CCT2; + free ponatinib): 0
- Av. SC (CCT2; no competitor): 3.5
- Total SC (CCT2; no competitor): 14
- Av. SC comp. (RIPK1; + free ponatinib): 0
- Total SC comp. (RIPK1; + free ponatinib): 0
- Av. SC (RIPK1; no competitor): 1.5
- Total SC (RIPK1; no competitor): 6
- Av. SC comp. (RIPK3; + free ponatinib): 0
- Total SC comp. (RIPK3; + free ponatinib): 0
- Av. SC (RIPK3; no competitor): 17
- Total SC (RIPK3; no competitor): 68
SMILES: Cc1ccc(C(=O)Nc2ccc(CN3CCN(CCCN)CC3)c(C(F)(F)F)c2)cc1C#Cc1cnc2cccnn12 [c-ponatinib]
